In patent US4254285A, “1-Hydroxymethyl-1-1-oxo prostane derivatives of the E and F series” (American Cyanamid Company, priority 1979, dated 1981):
Like-named read-outs stand apart in the source and are kept apart here.

Assays:
[1] = tested on: gastric secretion; test: Gastric anti-secretory test, Heidenhain pouch, histamine-stimulated; type: in vivo, dog; conditions: oral 100 mg/Kg
Procedure: Unanesthetized mongrel dogs weighing 10-15 Kg are used. The animals have a surgically prepared denervated (Heidenhain) pouch which drains by gravity through a titanium cannula. These animals are trained to stand quietly in a Pavlov support. Gastric secretion is stimulated at the lowest rate giving stable secretion (25-40% of maximal) with histamine acid phosphate, 30-50 μg/Kg/hr. Under such stimulation, a stable gastric secretory output can generally be maintained for a period of at least 3 hours.
Gastric juice is collected continuously during secretory studies and pooled into 15-minute collections. Determination of collection volume, pH and titratable acidity is performed. Acid is determined by titrating an aliquot of gastric sample with 0.1 N NaOH to pH 7.0 using an automatic titrator.
Drugs are administered on a background of submaximal gastric secretory stimulation and the results compared with control secretory studies without the use of drug. Depending upon the duration of action of a particular drug, it may be possible for a single drug-secretory study to serve as its own control. The route of drug administration is oral administration into the main stomach.
For example, one of the PGE compounds of this invention 1,9-dioxo-11α,16-dihydroxy-16-methyl-1-hydroxymethyl-5-trans prostadiene on administration into the stomach of one of these dogs at a dose of […] gives the results shown hereinbelow in Table D. The data in Table D is the average of four tests in one dog.

[2] = tested on: indomethacin-induced gastric ulcers; type: in vivo, rat
Procedure: (§1) Male Wistar rats (Royal Hart, New Hampton, N.Y.), weighing 190-210 g are distributed among control and treatment groups (5 rats/group) and housed one rat per cage. During the 52 hour test period, the rats are permitted free access to food and drinking water for the first 33 hours but are fasted overnight prior to sacrifice. Indomethacin is suspended (4 mg/ml) in a 1.5% starch-phosphate buffer solution (SPBS). 1,9-dioxo-11α,16-dihydroxy-16-methyl-1-hydroxymethyl-13-transprostene is dissolved at 10 mg/ml in ethanol and then diluted in SPBS to 0.1 mg/ml or to a lower concentration as required. The indomethacin suspension is injected subcutaneously (10 mg/kg) and the prostaglandin suspension is given by gavage (0.5 mg/kg or less) b.i.d. on day 0 and 1. Rats receive only one dose of prostaglandin and indomethacin on day 2 and 6 hours later are killed with chloroform. The stomachs are dissected, opened along the greater curvature, and rinsed briefly in tap water. They are then spread, mucosal surface facing upward and pinned onto uniform size corks (2.5 inch diameter) individually numbered on the back. The identification number for each stomach is unknown to the investigator and the stomachs are randomly graded according to the following scheme:
1--Petechial hemorrhage, or pin-point ulcers
2--One or two small ulcers or hemorrhagic erosions
3--Many areas of hemorrhage erosion or ulcers, a few large
4--Massive areas of hemorrhagic erosion or many ulcers, mainly large
(§2) ^a Treatment is B.I.D. on days 0 and 1, and once on day 2, six hours
(§3) prior to sacrifice for scoring.

[3] = tested on: indomethacin-induced intestinal ulcers; type: in vivo, rat
Procedure: as §1
Intestines are also removed and examined for the presence of ulcers, which are graded according to the scheme outlined below.
1--Mucosa thin, petechial hemorrhage
2--"Blow-outs", when intestine inflated with air
3--Few ulcers. Gut more fragile than normal, tears along line of mesentery attachements when removed
4--Many large perforating lesions. Adhesions. Gut hemorrhagic and very fragile. Tears readily and cannot be removed intact. Graded in situ.
as §2, §3

[4] = type: in vivo, rat
Procedure: as §1, §2, §3

[5] = 0 min., average of four tests in one dog
[6] = .02 mg/kg P.O. with indomethacin 10 mg/kg subcut.
[7] = .1 mg/kg P.O. with indomethacin 10 mg/kg subcut.
[8] = .5 mg/kg P.O. with indomethacin 10 mg/kg subcut.

## CCCCC(C)(O)CC=CC1C(O)CC(=O)C1CC=CCCCC(=O)CO (stereo not drawn) [1,9-dioxo-11α,16-dihydroxy-16-methyl-1-hydroxymethyl-5-cis-13-trans-prostadiene]
[1]; [5]
  Acid: 0.43 meg/15 min.
  Volume of gastric juice: 3.4 mL
[1]; 15 min.
  Acid: 0.35 meg/15 min.
  Volume of gastric juice: 2.6 mL
[1]; 30 min.
  Acid: 0.22 meg/15 min.
  Volume of gastric juice: 1.5 mL
[1]; 45 min.
  Acid: 0.20 meg/15 min.
  Volume of gastric juice: 1.3 mL
[1]; 60 min.
  Acid: 0.09 meg/15 min.
  Volume of gastric juice: 0.7 mL
[1]; 75 min.
  Acid: 0.13 meg/15 min.
  Volume of gastric juice: 0.9 mL
[1]; 90 min.
  Acid: 0.21 meg/15 min.
  Volume of gastric juice: 1.5 mL
[1]; 105 min.
  Acid: 0.27 meg/15 min.
  Volume of gastric juice: 1.9 mL
[1]; 120 min.
  Acid: 0.40 meg/15 min.
  Volume of gastric juice: 2.7 mL

## CCCCC(C)(O)CC=CC1C(O)CC(=O)C1CCCCCCC(=O)CO (stereo not drawn)
[2]; [6]
  Gastric Ulcer Score (Mean ± S.E.M.): 1.9 ± 0.4
[2]; [7]
  Gastric Ulcer Score (Mean ± S.E.M.): 1.7 ± 0.3
[2]; [8]
  Gastric Ulcer Score (Mean ± S.E.M.): 2.1 ± 0.4
[3]; [6]
  Intestinal Ulcer Score (Mean ± S.E.M.): 3.5 ± 0.2
[3]; [7]
  Intestinal Ulcer Score (Mean ± S.E.M.): 2.7 ± 0.2
[3]; [8]
  Intestinal Ulcer Score (Mean ± S.E.M.): 2.0 ± 0.4
[4]; [6]
  Hematocrit (Mean ± S.E.M.): 35.6 ± 1.9
[4]; [7]
  Hematocrit (Mean ± S.E.M.): 41.1 ± 2.4
[4]; [8]
  Hematocrit (Mean ± S.E.M.): 40.0 ± 1.4
